Holding throughout (assay): NCI anticancer screen, dose series, 48 h
The test system of test [1] is CAKI-1 renal.
The test system of test [2] is HCC-2998 colon.
In test [3] the test system is HL-60(TB) leukemia.
Test [4] deals with KM12 colon.
Test [5] concerns LOX IMVI melanoma.
In test [6] the test system is MALME-3M melanoma.
The test system of test [7] is NCI-H23 lung.
In test [8] the test system is SK-MEL-2 melanoma.
For test [9], the system named is SK-MEL-5 melanoma.
Test [10] deals with K-562 leukemia.

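48-hour exposure; five concentrations; linearly interpolated endpoints. GI50 is the concentration that inhibits growth by half. TGI denotes the concentration required for complete inhibition of growth.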

As to `O=C1CCc2ccc3c(c21)CC1(Cc2ccccc2C1)C3`, the TGI was above 100 µM in test [1]; 49.3 µM in test [2]; 7.03 µM in test [3]; 46 µM in test [4]; 20.1 µM in [5]; 70.5 µM in test [6]. Besides, the TGI in test [7] was above 100 µM; in test [8] it was 38.7 µM; in [9], 11.4 µM.

With `N#Cc1c(C#N)c(-c2ccccc2)n(-c2ccccc2)c1N`, the TGI in test [1], in test [3], in [10], in test [4], in [5] and in [6] was above 100 µM each time. Moreover, the TGI in [7], in test [8] and in [9] was above 100 µM throughout.

On to `CC(C)(C)OC(=O)n1c(-c2ccccc2F)cc(=O)c2cc3c(cc21)OCO3`, for which the TGI was above 37.3 µM in [1]; above 32.3 µM in test [2]; above 100 µM in test [10]; above 100 µM in [6]; above 100 µM in [7]; above 100 µM in test [8]. Further, the TGI in test [9] came to 1.2 µM.

Turning to `c1csc(-c2c3ccc(=[N+]4CCCCC4)cc-3oc3cc(N4CCCCC4)ccc23)c1`, the GI50 in test [1] was 0.131 µM; in [2] it was 0.0391 µM; in test [3] it was 0.145 µM; in test [6] it was 0.027 µM; in [9], 0.141 µM. Moreover, the TGI in test [1] was 0.305 µM; in [2] it was 0.14 µM; in test [3] it was 0.547 µM; in test [6], 0.0822 µM; in test [9] it was 0.276 µM.

`CCOC(=O)[C@@H]1ON2O[C@@H](OC3CCCC3(c3ccccc3)c3ccccc3)C[C@H]3OC(=O)[C@@H]1C32` (some centres not stated): the TGI is 31.6 µM in [1]; above 100 µM in test [2]; 60.9 µM in test [3]; 29 µM in [4]; above 100 µM in [5]; 37.2 µM in test [7]. The TGI in [9] was above 100 µM.

As for `CN(C)P(=O)(Oc1occc1C(O)Cc1ccccc1)N(C)C` (configuration not stated), the TGI in [1], in [2], in [4], in test [5], in test [6] and in test [7] was above 100 µM throughout. Moreover, the TGI in test [8] and in test [9] was above 100 µM in each case.

Turning to `CC1(C)[C@@H](Cn2cnc3c(Cl)nc(N)nc32)CC[C@@]1(C)CO`, the TGI in test [1] is above 100 µM; in test [2], 48.7 µM; in [10], above 100 µM; in test [4], above 100 µM; in [5], 80.9 µM; in test [8] it was 35.1 µM. This molecule had a TGI in test [9] of 47.3 µM.

As for `Clc1ccc(Cl)c(SCCCN2CCNCC2)c1`, the TGI was determined as 41.8 µM in test [1]; 12.8 µM in test [2]; 40.3 µM in test [3]; 39.9 µM in [10]; 86.1 µM in test [4]; 35.8 µM in test [5]. The TGI amounted to 31.8 µM in [6], 39.8 µM in test [7] and 33.1 µM in test [9].

As to `Nc1nc(Nc2ccc(Cl)cc2)sc1C(=O)c1cccs1`, the TGI in test [3], in test [4], in [5], in [6], in test [7] and in test [8] was above 100 µM in each case. Besides, in test [9], the TGI was above 100 µM.

For the molecule `OCC(O)C(O)C(O)/C=N/Nc1nc(O)c(/C=C2\C=Nc3ccccc32)[nH]1` (configuration not stated), the TGI in [1], in [2], in [3], in [10], in test [4] and in [5] was above 100 µM each time. Moreover, the TGI in test [6], in test [7] and in test [9] was above 100 µM in each case.

Regarding `COc1ccccc1N1CCN(CCCNC(=O)c2cc(Cl)c(N)c(Cl)c2)CC1`, the TGI in test [2] is 41.6 µM; in test [3], 55.8 µM; in test [4] it was above 100 µM; in [6], 37.7 µM; in test [7], above 100 µM; in [9], 33.2 µM.

As to `CC(C)(C)OC(=O)C1C(=O)NC(=O)CC1C(COCc1ccccc1)OCc1ccccc1` (configuration not stated), the TGI in test [1] is above 100 µM; in test [2], 47.7 µM; in test [3] it was 60.6 µM; in test [10] it was above 100 µM; in [4], 36.7 µM; in [5], 34.7 µM. Also, the figures for the TGI in [6], in [7] and in test [9] were 35.5 µM, 92.6 µM and 31.1 µM, respectively.

As to `CN1COCc2cc3cc4c(cc3nc21)OCCO4`, the TGI in test [1], in test [2], in [10], in test [4], in test [5] and in [6] was above 100 µM each time. Besides, the TGI in [8] and in [9] was above 100 µM throughout.

Turning to `O=C1CS(=O)C23c4cc5ccccc5n4CCC2CCCN13` (configuration not stated), the TGI in test [1], in test [3], in test [10], in [4], in test [5] and in test [6] was above 100 µM in each case. Besides, the TGI in [7], in test [8] and in test [9] was above 100 µM throughout.

Turning to `COC(=O)[C@H](Cc1ccccc1)NC(=O)c1ccc(CNC(=O)/C=C/c2cccc(Oc3ccccc3)c2)cc1`, the TGI in test [1] was 58.1 µM; in test [2], 89.7 µM; in test [10] it was above 100 µM; in test [4], above 100 µM; in test [6], 30.4 µM; in test [7], above 100 µM. Besides, the TGI in test [8] stood at 27.7 µM; in test [9] it was 36.9 µM.
